These results are taken from US10738056B2 (Aduro BioTech, Inc., priority 2017, dated 2020).

Structures are written as SMILES. Bounds are passed on as bounds.

In this assay the target is Human cGAS amino acids 155-522 (Homo sapiens (Human), UniProt Q8N884). As to the kind of experiment: cGAS biochemical activity assay (ATP remaining, Kinase-Glo Max luminescence). The note with it: human cGAS 155-522, ATP remaining (Kinase-Glo Max); read-out: cGAS IC50. (In Kinase-Glo more light means more ATP remaining.)
Chain of Human cGAS amino acids 155-522 (Q8N884 157-522): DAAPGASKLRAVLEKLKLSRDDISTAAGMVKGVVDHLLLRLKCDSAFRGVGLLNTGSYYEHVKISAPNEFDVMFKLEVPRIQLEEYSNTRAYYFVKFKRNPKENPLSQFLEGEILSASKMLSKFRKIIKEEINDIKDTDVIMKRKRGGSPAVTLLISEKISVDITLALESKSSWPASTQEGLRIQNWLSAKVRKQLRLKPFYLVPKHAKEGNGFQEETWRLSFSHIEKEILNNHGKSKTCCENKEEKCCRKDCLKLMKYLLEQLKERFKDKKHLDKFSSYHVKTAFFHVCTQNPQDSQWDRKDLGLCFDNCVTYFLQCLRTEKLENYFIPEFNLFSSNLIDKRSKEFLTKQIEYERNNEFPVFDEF
Usually IC50 stands for the concentration needed to halve the response being measured. `Cc1nnc(Cc2c(C)[nH]c3c(-c4ccccc4)c(C(F)(F)F)nn3c2=O)o1` [Compound D1032, 5-methyl-6-((5-methyl-1,3,4-oxadiazol-2-yl)methyl)-3-phenyl-2-(trifluoromethyl)pyrazolo[1,5-a]pyrimidin-7(4H)-one]: the IC50 was in the range of 20 to 250 µM.
On to `COc1ccc(-c2nnc(Cc3c(C)[nH]c4c(-c5ccccc5)c(C(F)(F)F)nn4c3=O)o2)cc1` [Compound D1033, 6-((5-(4-methoxyphenyl)-1,3,4-oxadiazol-2-yl)methyl)-5-methyl-3-phenyl-2-(trifluoromethyl)pyrazolo[1,5-a]pyrimidin-7(4H)-one], for which the IC50 was in the range of 20 to 250 µM.
As to `Cc1[nH]c2c(-c3ccccc3)c(C(F)(F)F)nn2c(=O)c1Cc1nnc(C2CCCC2)o1` [Compound D1034, 6-((5-cyclopentyl-1,3,4-oxadiazol-2-yl)methyl)-5-methyl-3-phenyl-2-(trifluoromethyl)pyrazolo[1,5-a]pyrimidin-7(4H)-one], the IC50 fell in the range of 20 to 250 µM.
For `Cc1[nH]c2c(-c3ccccc3)c(C(F)(F)F)nn2c(=O)c1Cc1nnc(C2CCCCC2)o1` [Compound D1035, 6-((5-cyclohexyl-1,3,4-oxadiazol-2-yl)methyl)-5-methyl-3-phenyl-2-(trifluoromethyl)pyrazolo[1,5-a]pyrimidin-7(4H)-one], the 50% inhibitory concentration (IC50) fell in the range of 20 to 250 µM.
The figure for `Cc1[nH]c2c(-c3ccccc3)c(C(F)(F)F)nn2c(=O)c1-c1nnc(C2CCCNC2)o1` (centres unmarked) [Compound D1036, 5-methyl-3-phenyl-6-(5-(piperidin-3-yl)-1,3,4-oxadiazol-2-yl)-2-(trifluoromethyl)pyrazolo[1,5-a]pyrimidin-7(4H)-one] is 20 to 250 µM; for `COC1CCN(c2nnc(-c3c(C)[nH]c4c(-c5ccccc5)c(C(F)(F)F)nn4c3=O)o2)C1` (centres unmarked) [Compound D1037, 6-(5-(3-methoxypyrrolidin-1-yl)-1,3,4-oxadiazol-2-yl)-5-methyl-3-phenyl-2-(trifluoromethyl)pyrazolo[1,5-a]pyrimidin-7(4H)-one] it is under 20 µM.
Turning to `Cc1[nH]c2c(-c3ccccc3)c(C(F)(F)F)nn2c(=O)c1-c1nnc(C2COCCN2C(=O)OCc2ccccc2)o1` (centres unmarked) [Compound D1039, benzyl 3-(5-(5-methyl-7-oxo-3-phenyl-2-(trifluoromethyl)-4,7-dihydropyrazolo[1,5-a]pyrimidin-6-yl)-1,3,4-oxadiazol-2-yl)morpholine-4-carboxylate], the IC50 was 20 to 250 µM.
The figure for `Cc1[nH]c2c(-c3ccccc3)c(C(F)(F)F)nn2c(=O)c1-c1nnc(N(C)C2CCCCC2)o1` [Compound D1043, 6-(5-(cyclohexyl(methyl)amino)-1,3,4-oxadiazol-2-yl)-5-methyl-3-phenyl-2-(trifluoromethyl)pyrazolo[1,5-a]pyrimidin-7(4H)-one] is over 250 µM; for `Cc1[nH]c2c(-c3ccccc3)c(C(F)(F)F)nn2c(=O)c1-c1nnc(C2CCN(C(=O)OC(C)(C)C)CC2)o1` [Compound D1044, tert-butyl 4-(5-(5-methyl-7-oxo-3-phenyl-2-(trifluoromethyl)-4,7-dihydropyrazolo[1,5-a]pyrimidin-6-yl)-1,3,4-oxadiazol-2-yl)piperidine-1-carboxylate] it is 20 to 250 µM.
The same measure for `Cc1[nH]c2c(-c3ccccc3)c(C(F)(F)F)nn2c(=O)c1-c1nnc(C2CCCCN2C(=O)OC(C)(C)C)o1` (centres unmarked) [Compound D1045, tert-butyl 2-(5-(5-methyl-7-oxo-3-phenyl-2-(trifluoromethyl)-4,7-dihydropyrazolo[1,5-a]pyrimidin-6-yl)-1,3,4-oxadiazol-2-yl)piperidine-1-carboxylate]: 20 to 250 µM; for `Cc1[nH]c2c(-c3ccccc3)c(C(F)(F)F)nn2c(=O)c1-c1nnc(C2CCNCC2)o1` [Compound D1052, 5-methyl-3-phenyl-6-(5-(piperidin-4-yl)-1,3,4-oxadiazol-2-yl)-2-(trifluoromethyl)pyrazolo[1,5-a]pyrimidin-7(4H)-one]: 20 to 250 µM.
As for `Cc1[nH]c2c(-c3ccccc3)c(C(F)(F)F)nn2c(=O)c1-c1nnc(C2CCN(S(C)(=O)=O)CC2)o1` [Compound D1053, 5-methyl-6-(5-(1-(methylsulfonyl)piperidin-4-yl)-1,3,4-oxadiazol-2-yl)-3-phenyl-2-(trifluoromethyl)pyrazolo[1,5-a]pyrimidin-7(4H)-one], the IC50 was 20 to 250 µM.
As to `CC(=O)N1CCC(c2nnc(-c3c(C)[nH]c4c(-c5ccccc5)c(C(F)(F)F)nn4c3=O)o2)CC1` [Compound D1054, 6-(5-(1-acetylpiperidin-4-yl)-1,3,4-oxadiazol-2-yl)-5-methyl-3-phenyl-2-(trifluoromethyl)pyrazolo[1,5-a]pyrimidin-7(4H)-one], the IC50 was 20 to 250 µM.
Take `Cc1[nH]c2c(-c3ccccc3)c(C(F)(F)F)nn2c(=O)c1-c1nnc(N2CCN(C)CC2)o1` [Compound D1058, 5-methyl-6-(5-(4-methylpiperazin-1-yl)-1,3,4-oxadiazol-2-yl)-3-phenyl-2-(trifluoromethyl)pyrazolo[1,5-a]pyrimidin-7(4H)-one]: the IC50 lay in the range of 20 to 250 µM.
Consider `COCC1CCCN1c1nnc(-c2c(C)[nH]c3c(-c4ccccc4)c(C(F)(F)F)nn3c2=O)o1` (centres unmarked) [Compound D1059, 6-(5-(2-(methoxymethyl)pyrrolidin-1-yl)-1,3,4-oxadiazol-2-yl)-5-methyl-3-phenyl-2-(trifluoromethyl)pyrazolo[1,5-a]pyrimidin-7(4H)-one], for which the IC50 fell in the range of 20 to 250 µM.
The same measure for `COCC1CCCCN1c1nnc(-c2c(C)[nH]c3c(-c4ccccc4)c(C(F)(F)F)nn3c2=O)o1` (centres unmarked) [Compound D1060, 6-(5-(2-(methoxymethyl)piperidin-1-yl)-1,3,4-oxadiazol-2-yl)-5-methyl-3-phenyl-2-(trifluoromethyl)pyrazolo[1,5-a]pyrimidin-7(4H)-one]: 20 to 250 µM; for `Cc1[nH]c2c(-c3ccccc3)c(C(F)(F)F)nn2c(=O)c1-c1nnc(-c2ccc([N+](=O)[O-])cc2)o1` [Compound D1061, 5-methyl-6-(5-(4-nitrophenyl)-1,3,4-oxadiazol-2-yl)-3-phenyl-2-(trifluoromethyl)pyrazolo[1,5-a]pyrimidin-7(4H)-one]: 20 to 250 µM.
`Cc1[nH]c2c(-c3ccccc3)c(C(F)(F)F)nn2c(=O)c1-c1nnc(-c2cccnc2)o1` [Compound D1063, 5-methyl-3-phenyl-6-(5-(pyridin-3-yl)-1,3,4-oxadiazol-2-yl)-2-(trifluoromethyl)pyrazolo[1,5-a]pyrimidin-7(4H)-one]: the IC50 was in the range of 20 to 250 µM.
The same measure for `COc1ncccc1-c1nnc(-c2c(C)[nH]c3c(-c4ccccc4)c(C(F)(F)F)nn3c2=O)o1` [Compound D1064, 6-(5-(2-methoxypyridin-3-yl)-1,3,4-oxadiazol-2-yl)-5-methyl-3-phenyl-2-(trifluoromethyl)pyrazolo[1,5-a]pyrimidin-7(4H)-one]: over 250 µM; for `Cc1[nH]c2c(-c3ccccc3)c(C(F)(F)F)nn2c(=O)c1-c1nnc(CC2CCN(C)CC2)o1` [Compound D1065, 5-methyl-6-(5-((1-methylpiperidin-4-yl)methyl)-1,3,4-oxadiazol-2-yl)-3-phenyl-2-(trifluoromethyl)pyrazolo[1,5-a]pyrimidin-7(4H)-one]: 20 to 250 µM; for `Cc1[nH]c2c(-c3ccccc3)c(C(F)(F)F)nn2c(=O)c1-c1nnc(C(N)=O)o1` [Compound D1066, 5-(5-methyl-7-oxo-3-phenyl-2-(trifluoromethyl)-4,7-dihydropyrazolo[1,5-a]pyrimidin-6-yl)-1,3,4-oxadiazole-2-carboxamide]: under 20 µM.
With `Cc1[nH]c2c(-c3ccccc3)c(C(F)(F)F)nn2c(=O)c1-c1nnc(-c2cccnc2O)o1` [Compound D1067, 6-(5-(2-hydroxypyridin-3-yl)-1,3,4-oxadiazol-2-yl)-5-methyl-3-phenyl-2-(trifluoromethyl)pyrazolo[1,5-a]pyrimidin-7(4H)-one], the IC50 is under 20 µM.
For the compound `Cc1[nH]c2c(-c3ccccc3)c(C(F)(F)F)nn2c(=O)c1-c1nnc(N2CCS(=O)(=O)CC2)o1` [Compound D1068, 6-(5-(1,1-dioxidothiomorpholino)-1,3,4-oxadiazol-2-yl)-5-methyl-3-phenyl-2-(trifluoromethyl)pyrazolo[1,5-a]pyrimidin-7(4H)-one], the IC50 was 20 to 250 µM.
With `Cc1[nH]c2c(-c3ccccc3)c(C(F)(F)F)nn2c(=O)c1-c1nnc(N2CCCCC2CCN)o1` (centres unmarked) [Compound D1069, 6-(5-(2-(2-aminoethyl)piperidin-1-yl)-1,3,4-oxadiazol-2-yl)-5-methyl-3-phenyl-2-(trifluoromethyl)pyrazolo[1,5-a]pyrimidin-7(4H)-one], the IC50 was in the range of 20 to 250 µM.
As to `Cc1[nH]c2c(-c3ccccc3)c(C(F)(F)F)nn2c(=O)c1-c1nnc(N2CCCCC2CCNS(C)(=O)=O)o1` (centres unmarked) [Compound D1073, N-(2-(1-(5-(5-methyl-7-oxo-3-phenyl-2-(trifluoromethyl)-4,7-dihydropyrazolo[1,5-a]pyrimidin-6-yl)-1,3,4-oxadiazol-2-yl)piperidin-2-yl)ethyl)methanesulfonamide], the IC50 is under 20 µM.
`Cc1[nH]c2c(-c3ccccc3)c(C(F)(F)F)nn2c(=O)c1-c1nnc(C(=N)N)o1` [Compound D1074, 5-(5-methyl-7-oxo-3-phenyl-2-(trifluoromethyl)-4,7-dihydropyrazolo[1,5-a]pyrimidin-6-yl)-1,3,4-oxadiazole-2-carboximidamide]: the IC50 was under 20 µM.
`Cc1[nH]c2c(-c3ccccc3)c(C(F)(F)F)nn2c(=O)c1-c1nnc(N)o1` [Compound D1075, 6-(5-amino-1,3,4-oxadiazol-2-yl)-5-methyl-3-phenyl-2-(trifluoromethyl)pyrazolo[1,5-a]pyrimidin-7(4H)-one]: the IC50 lay within 20 to 250 µM.
Regarding `COc1ccnc(-c2nnc(-c3c(C)[nH]c4c(-c5ccccc5)c(C(F)(F)F)nn4c3=O)o2)n1` [Compound D1076, 6-(5-(4-methoxypyrimidin-2-yl)-1,3,4-oxadiazol-2-yl)-5-methyl-3-phenyl-2-(trifluoromethyl)pyrazolo[1,5-a]pyrimidin-7(4H)-one], the IC50 was 20 to 250 µM.
For `Cc1[nH]c2c(-c3ccccc3)c(C(F)(F)F)nn2c(=O)c1-c1nnc(-c2cccc(N)c2)o1` [Compound D1079, 6-(5-(3-aminophenyl)-1,3,4-oxadiazol-2-yl)-5-methyl-3-phenyl-2-(trifluoromethyl)pyrazolo[1,5-a]pyrimidin-7(4H)-one], the IC50 was over 250 µM.
